Patent US20070231374A1, “Composition Comprising Ether Lipid” (priority 2003, published 2007)

Columns and labels:
[1] = Phase diagram of GEO/water mixtures (polarising microscope, small angle x-ray diffraction); format: physicochemical; conditions: mixtures with water, FIG. 1
Protocol: Mixtures of glyceryl-1-monooleate ether (GEO) with water were prepared, shaken and allowed to equilibrate at a known temperature. The phase(s) of the resulting mixture were examined under the polarising microscope and by small angle x-ray diffraction.
At higher water content, both the L2 and the HII phases were stable in the presence of excess water.

[2] = stated as known; cited from earlier work

water concentration at which reversed hexagonal (HII) phase forms [1] | SMILES | stable phase in excess water [2]
> 15% | CCCCCCCC/C=C\CCCCCCCCOCC(O)CO (stereo not drawn) [GEO, Glyceryl-1-monooleate ether] | reversed hexagonal
– | CCCCCCCC/C=C\CCCCCCCC(=O)OCC(O)CO (stereo not drawn) [GMO, glyceryl monooleate] | reversed cubic
